In one data set the target is T1, human DAT (Homo sapiens, UniProt Q01959).
T1 construct: expressed in transfected cells
In words: Competitive binding in transfected cell lines, [3H]WIN 35428.

In data set [1] the target is T2, norepinephrine transporter (Homo sapiens, UniProt P23975).
T2 construct: expressed in transfected cells
In words: Competitive binding in transfected cell lines, [3H]Nisoxetine.

In a further data set the target is T3, human SERT (Homo sapiens, UniProt P31645).
T3 construct: expressed in transfected cells
T3 sequence (P31645 whole entry): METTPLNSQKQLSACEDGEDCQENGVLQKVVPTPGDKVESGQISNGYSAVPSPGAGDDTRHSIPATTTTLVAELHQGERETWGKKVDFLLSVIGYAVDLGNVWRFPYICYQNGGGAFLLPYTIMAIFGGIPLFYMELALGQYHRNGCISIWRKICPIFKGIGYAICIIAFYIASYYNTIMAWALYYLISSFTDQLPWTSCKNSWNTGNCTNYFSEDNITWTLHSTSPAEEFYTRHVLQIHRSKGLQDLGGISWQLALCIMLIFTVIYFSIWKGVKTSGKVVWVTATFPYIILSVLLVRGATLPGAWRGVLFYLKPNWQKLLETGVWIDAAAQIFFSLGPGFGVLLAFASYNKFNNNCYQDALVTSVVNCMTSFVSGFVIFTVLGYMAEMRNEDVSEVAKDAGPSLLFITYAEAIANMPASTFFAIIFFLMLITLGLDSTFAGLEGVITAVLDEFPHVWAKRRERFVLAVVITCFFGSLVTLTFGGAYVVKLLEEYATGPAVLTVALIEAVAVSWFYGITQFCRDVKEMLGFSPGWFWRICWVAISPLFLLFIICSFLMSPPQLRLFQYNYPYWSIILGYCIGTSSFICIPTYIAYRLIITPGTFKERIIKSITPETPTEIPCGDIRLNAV
In words: Competitive binding in transfected cell lines, [3H]Citalopram.

In another data set the test system is striatal DAT. The data set can be described thus: PET imaging in awake rhesus monkeys. The format is in vivo, rhesus monkey. The protocol:
The regional kinetics of [^18F] […] Both [^18F] […] [^18F] […] The peak uptake ratio of striatumwcerebellum was 4:1 at 20 minutes for [^18F] […] 6d. The in vivo ratio of [1^18F] […] FECNT, 5:1. [^18F]

Data set [2] is described as follows: In vivo regional brain tissue distribution of 18F-labeled ligands in rats. On the set-up: species or system Sprague Dawley rats. To be noted: rat; for Regional uptake of radioactivity, Cerebellum / Regional uptake of radioactivity, Cortex (Cx) / Regional uptake of radioactivity, Striatum / S/Cereb (striatum to cerebellum ratio) / S/Cx (striatum to cortex ratio) / Uptake of radioactivity, Blood / Uptake of radioactivity, Brain: i.v., 18F-labeled. From the text: The in vivo regional brain tissue distribution of [^18F]

The next data set addresses T4, rat brain DAT (Rattus norvegicus, UniProt P23977).
T4 construct: from tissue; host or cells: brain of living male Sprague Dawley rats (striatum, cortex, cerebellum dissected)
The data set can be described thus: In vivo specificity: RTI-113 block before the 18F ligand in rats. To be noted: for effect of RTI-113 on uptake in the striatum: RTI-113 5 mg/kg i.v. 15 minutes prior, 60 minutes. As for the experimental part: To determine the in vivo specificity of FBNT analogs [^18F] […] 6a, 6d and 6e. The rats were sacrificed 60 minutes after injection of [^18F] […] 6a, 6d and 6e, in the DAT transporter rich striatum.

The mark [3] stands for this setting: [3H]WIN 35428 as reference, cells transfected with human DAT, read-out: DAT, Ki.
Setting [4] is: [3H]Nisoxetine, transfected cell lines, read-out: NET, Ki.
The mark [5] stands for this setting: [3H]Citalopram, cells transfected with human SERT, read-out: 5-HTT, Ki.
[6] abbreviates: at 60 minutes compared to 5 minutes post injection.
Setting [7] is: at 120 minutes compared to 5 minutes post injection.
Where [8] appears, read: 60 min, 5 mg/kg RTI-113 i.v. 15 minutes prior.

“And” between values parts separate entries of the source, which are not always exact repeats. Equal values may be shown once. Read-outs that look alike come from different tables or passages of the source.

T2 sequence (P23975 whole entry): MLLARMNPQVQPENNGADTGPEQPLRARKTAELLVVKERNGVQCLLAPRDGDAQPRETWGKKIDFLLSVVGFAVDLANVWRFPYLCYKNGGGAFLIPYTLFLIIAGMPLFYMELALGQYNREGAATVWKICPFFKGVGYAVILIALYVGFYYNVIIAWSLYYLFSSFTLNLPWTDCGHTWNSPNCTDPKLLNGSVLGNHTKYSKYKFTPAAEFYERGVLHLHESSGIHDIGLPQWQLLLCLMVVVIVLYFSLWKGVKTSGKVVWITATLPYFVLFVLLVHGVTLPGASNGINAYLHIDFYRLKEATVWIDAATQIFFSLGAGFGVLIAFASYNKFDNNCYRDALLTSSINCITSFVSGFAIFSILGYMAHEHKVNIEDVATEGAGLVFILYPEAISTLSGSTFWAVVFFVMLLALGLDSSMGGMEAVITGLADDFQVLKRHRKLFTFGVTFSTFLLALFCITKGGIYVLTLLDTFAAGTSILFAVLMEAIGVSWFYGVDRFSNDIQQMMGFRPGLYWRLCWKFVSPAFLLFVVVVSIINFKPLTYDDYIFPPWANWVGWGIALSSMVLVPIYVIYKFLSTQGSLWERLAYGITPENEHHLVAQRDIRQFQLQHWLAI
T1 sequence (Q01959 whole entry): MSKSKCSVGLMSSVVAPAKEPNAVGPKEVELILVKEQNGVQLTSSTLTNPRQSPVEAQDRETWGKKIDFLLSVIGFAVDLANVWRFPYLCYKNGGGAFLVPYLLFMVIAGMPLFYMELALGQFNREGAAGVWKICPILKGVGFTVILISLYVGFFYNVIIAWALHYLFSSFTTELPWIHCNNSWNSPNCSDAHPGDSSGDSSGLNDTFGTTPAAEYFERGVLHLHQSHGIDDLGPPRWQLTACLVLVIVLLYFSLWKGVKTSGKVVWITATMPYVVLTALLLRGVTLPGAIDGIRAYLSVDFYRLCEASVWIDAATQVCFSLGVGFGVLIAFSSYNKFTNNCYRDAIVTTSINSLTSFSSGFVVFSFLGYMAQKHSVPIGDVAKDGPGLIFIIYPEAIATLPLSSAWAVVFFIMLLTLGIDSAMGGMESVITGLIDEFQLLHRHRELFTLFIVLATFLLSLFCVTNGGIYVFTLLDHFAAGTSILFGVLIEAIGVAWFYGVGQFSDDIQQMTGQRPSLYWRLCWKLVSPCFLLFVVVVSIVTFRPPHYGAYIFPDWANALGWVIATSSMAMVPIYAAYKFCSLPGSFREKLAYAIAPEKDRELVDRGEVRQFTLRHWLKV
T4 sequence (P23977 whole entry): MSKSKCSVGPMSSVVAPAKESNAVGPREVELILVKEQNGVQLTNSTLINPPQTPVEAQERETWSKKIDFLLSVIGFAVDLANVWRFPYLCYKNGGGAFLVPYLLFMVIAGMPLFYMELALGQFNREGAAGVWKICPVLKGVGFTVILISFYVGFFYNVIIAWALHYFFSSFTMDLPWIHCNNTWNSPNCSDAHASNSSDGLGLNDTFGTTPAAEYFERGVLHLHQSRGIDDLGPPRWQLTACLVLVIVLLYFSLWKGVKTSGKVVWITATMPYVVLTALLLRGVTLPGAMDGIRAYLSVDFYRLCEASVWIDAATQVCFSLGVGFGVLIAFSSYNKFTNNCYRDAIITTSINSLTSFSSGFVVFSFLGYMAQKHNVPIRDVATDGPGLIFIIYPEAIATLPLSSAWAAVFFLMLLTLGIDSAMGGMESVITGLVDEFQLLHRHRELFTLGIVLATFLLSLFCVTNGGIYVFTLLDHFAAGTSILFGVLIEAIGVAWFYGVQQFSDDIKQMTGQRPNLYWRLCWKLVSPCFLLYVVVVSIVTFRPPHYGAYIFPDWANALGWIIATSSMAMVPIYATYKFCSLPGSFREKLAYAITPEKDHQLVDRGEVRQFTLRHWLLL

Consider `COC(=O)[C@H]1[C@@H](c2ccc(F)cc2)C[C@@H]2CC[C@H]1N2C/C=C/I` [Altropane, reference compound], for which the figures for the Ki (on human DAT (setting [3]); in data set [1] (setting [4]); on human SERT (setting [5])) were 0.78 nM, above 10000 nM and 55.4 nM, respectively.
Consider `COC(=O)[C@H]1[C@@H](c2ccc(Br)cc2)C[C@@H]2CC[C@H]1N2C/C=C/CF` [6b, N-((E)-4-=fluorobut-2-en-1-yl)-2β-carbomethoxy-3β-4-(4-bromophenyl)nortropane], for which the Ki – broadly, a dissociation constant, usually derived from enzyme kinetics or from competition with a known ligand – is 91 nM in data set [1] and 0.85 nM at human SERT.
For `COC(=O)[C@H]1[C@@H](c2ccc(I)cc2)C[C@@H]2CC[C@H]1N2C/C=C/CF` [6c, N-((E)-4-fluorobut-2-en-1-yl)-2β-carbomethoxy-3β-(4-iodophenyl)nortropane], the Ki at human DAT stood at 0.17 nM; at human SERT, 0.21 nM.
For the compound `COC(=O)[C@H]1[C@@H](c2ccc(Cl)cc2)C[C@@H]2CC[C@H]1N2C/C=C\CF` [6f, N-((Z)-4-fluorobut-2-en-1-yl)-2β-carbomethoxy-3β-(4-chlorophenyl) nortropane], the “initial uptake in striatum and cerebellum” value with striatal DAT (awake rhesus monkeys) was “high initial uptake in the striatum and very little uptake in the cerebellum”.
In the case of `COC(=O)[C@H]1[C@@H](c2ccc(F)cc2)C[C@@H]2CC[C@H]1N2C/C=C/CF` [6e, N-((E)-4-fluorobut-2-en-1-yl)-2β-carbomethoxy-3β-(4-fluorophenyl)nortropane], the inhibitory constant (Ki) at human DAT (setting [3]) was found to be 1.7 nM. Besides, the “clearance from striatal tissue” value in data set [2] (setting [6]) stood at 70%; in data set [2] (setting [7]) it was 85%. In addition, the “effect of RTI-113 on uptake in the striatum” value on rat brain DAT was “significantly blocked”. In addition, the “time at which transient equilibrium in the striatum was reached” value in the data set on striatal DAT (awake rhesus monkey, post injection) is 30 min and 20 min. Further, the “early transient equilibrium at the striatal DAT” value in the data set on striatal DAT (awake rhesus monkeys, PET) is on record as “achieved an early transient equilibrium”.
For “N-((E)-4-fluorobut-2-en-1-yl)-2β-carbomethoxy-3β-phenylnortropane [6a]”, on human DAT (from binding in transfected cells), the “selectivity for DAT over SERT” value is 14 times. Also, on human DAT (in vitro competitive binding), the “selectivity for DAT” value is on record as “very high selectivity”. In data set [1] (setting [4]), the Ki is above 10000 nM. Further, the Ki at human SERT (setting [5]) was 102 nM. The “clearance from striatal tissue” value in data set [2] (setting [6]) was 75%. Besides, in data set [2] (setting [7]), the “clearance from striatal tissue” value turned out to be 90%. In addition, in data set [2] (5 min), the “Regional uptake of radioactivity, Cerebellum” value (“Regional uptake … Cerebellum” below) is recorded as 0.55 % dose/g; the “Regional uptake of radioactivity, Cortex (Cx)” value (from here on “Regional uptake … (Cx)”) stood at 0.84 % dose/g; the “Regional uptake of radioactivity, Striatum” value (“Regional uptake … Striatum” for short) is on record as 1.25 % dose/g; the “S/Cereb (striatum to cerebellum ratio)” value is listed as 2.27. In data set [2] (5 min), the “S/Cx (striatum to cortex ratio)” value is 1.49; the “Uptake of radioactivity, Blood” value was found to be 0.22 % dose/g; the “Uptake of radioactivity, Brain” value was determined as 0.58 % dose/g. In data set [2] (30 min), the “Regional uptake … Cerebellum” value is on record as 0.12 % dose/g; the “Regional uptake … (Cx)” value was 0.19 % dose/g; the “Regional uptake … Striatum” value was found to be 0.36 % dose/g; the “S/Cereb (striatum to cerebellum ratio)” value is reported as 3.0. In addition, in data set [2] (30 min), the “S/Cx (striatum to cortex ratio)” value was 1.89; the “Uptake of radioactivity, Blood” value came out at 0.15 % dose/g; the “Uptake of radioactivity, Brain” value stood at 0.13 % dose/g. In data set [2] (60 min), the “Regional uptake … Cerebellum” value amounted to 0.09 % dose/g; the “Regional uptake … (Cx)” value is given as 0.13 % dose/g; the “Regional uptake … Striatum” value is listed as 0.25 % dose/g; the “S/Cereb (striatum to cerebellum ratio)” value is 2.78. In addition, in data set [2] (60 min), the “S/Cx (striatum to cortex ratio)” value is listed as 1.92; the “Uptake of radioactivity, Blood” value came out at 0.11 % dose/g; the “Uptake of radioactivity, Brain” value is recorded as 0.09 % dose/g. Further, in data set [2] (120 min), the “Regional uptake … Cerebellum” value was found to be 0.07 % dose/g; the “Regional uptake … (Cx)” value was 0.09 % dose/g; the “Regional uptake … Striatum” value turned out to be 0.13 % dose/g; the “S/Cereb (striatum to cerebellum ratio)” value is reported as 1.86. Further, in data set [2] (120 min), the “S/Cx (striatum to cortex ratio)” value turned out to be 1.86; the “Uptake of radioactivity, Blood” value is 0.07 % dose/g; the “Uptake of radioactivity, Brain” value turned out to be 0.07 % dose/g. For the same compound, at rat brain DAT (setting [8]), the “Regional uptake … Cerebellum” value came out at 0.09 % dose/g; the “Regional uptake … (Cx)” value is recorded as 0.10 % dose/g; the “Regional uptake … Striatum” value was 0.11 % dose/g; the “S/Cereb (striatum to cerebellum ratio)” value turned out to be 1.22. Further, on rat brain DAT (setting [8]), the “S/Cx (striatum to cortex ratio)” value is recorded as 1.10; the “Uptake of radioactivity, Blood” value is 0.12 % dose/g; the “Uptake of radioactivity, Brain” value is 0.07 % dose/g. Moreover, at rat brain DAT, the “effect of RTI-113 on uptake in the striatum” value is recorded as “significantly blocked”. The “retention of radioactivity in the striatum” value in the data set with striatal DAT (awake rhesus monkey, PET images) is listed as “no visible retention of radioactivity in the striatum”.
As to `COC(=O)[C@H]1[C@@H](c2ccc(Cl)cc2)C[C@@H]2CC[C@H]1N2C/C=C/I` [MMG/142, IPT, reference compound], the Ki amounted to 1.16 nM at human DAT, 48.7 nM in data set [1] and 4.9 nM at human SERT.
